From ChEMBL document CHEMBL1201862, “PubChem BioAssay data set” (2004)
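Tested at 5 concentrations; 48 h exposure; 96-well plates; endpoints linearly interpolated, else capped at highest concentration. Here, GI50 denotes the concentration required for 50% inhibition of growth.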 Activity calls are given as the source filed them. Cut-off read from the data, not from the text of the source: active = GI50 up to about 1.1 µM and inactive = higher.

Columns and labels:
Assay in all cases: NCI anticancer screen, dose series, 48 h
786-0 = system: 786-0
A498 = system: A498
A549 = system: A549
ACHN = system: ACHN
CAKI-1 = system: CAKI-1
CCRF-CEM = system: CCRF-CEM
COLO 205 = system: COLO 205
DLD-1 = system: DLD-1
DMS-114 = system: DMS-114
DMS-273 = system: DMS-273
HCC 2998 = system: HCC 2998
HCT-116 = system: HCT-116
HCT-15 = system: HCT-15
HOP-18 = system: HOP-18
HOP-62 = system: HOP-62
HT-29 = system: HT-29
IGROV-1 = system: IGROV-1
K562 = system: K562
KM-20L2 = system: KM-20L2
KM12 = system: KM12
LOX IMVI = system: LOX IMVI
LXFL 529 = system: LXFL 529
M14 = system: M14
M19-MEL = system: M19-MEL
MOLT-4 = system: MOLT-4
Malme-3M = system: Malme-3M
NCI-H226 = system: NCI-H226
NCI-H23 = system: NCI-H23
NCI-H460 = system: NCI-H460
NCI-H522 = system: NCI-H522
OVCAR-3 = system: OVCAR-3
OVCAR-4 = system: OVCAR-4
OVCAR-5 = system: OVCAR-5
OVCAR-8 = system: OVCAR-8
RPMI-8226 = system: RPMI-8226
RXF 393 = system: RXF 393
SF-268 = system: SF-268
SF-295 = system: SF-295
SF-539 = system: SF-539
SK-MEL-28 = system: SK-MEL-28
SK-MEL-2 = system: SK-MEL-2
SK-MEL-5 = system: SK-MEL-5
SN12C = system: SN12C
SNB-19 = system: SNB-19
SNB-75 = system: SNB-75
SR = system: SR
SW-620 = system: SW-620
TK-10 = system: TK-10
U-251 = system: U-251
UACC-257 = system: UACC-257
UACC-62 = system: UACC-62
UO-31 = system: UO-31
XF498 = system: XF498
EKVX = system: EKVX
HL-60 = system: HL-60
HOP-92 = system: HOP-92
SK-OV-3 = system: SK-OV-3
SNB-78 = system: SNB-78

## CCCCCCCCCCCC(=O)OCC1OC(OC)C(NC(=O)N(CCCl)N=O)C(O)C1O (configuration not stated)
786-0
  GI50: 0.621 µM (active)
A498
  GI50: 18.7 µM (inactive)
A549
  GI50: 12.5 µM (inactive)
ACHN
  GI50: 10.6 µM (inactive)
CAKI-1
  GI50: > 100 µM (inactive)
CCRF-CEM
  GI50: 0.516 µM (active)
COLO 205
  GI50: 21.9 µM (inactive)
DLD-1
  GI50: 17.5 µM (inactive)
DMS-114
  GI50: 16.6 µM (inactive)
DMS-273
  GI50: 11.2 µM (inactive)
HCC 2998
  GI50: 14.4 µM (inactive)
HCT-116
  GI50: 13.2 µM (inactive)
HCT-15
  GI50: 27.2 µM
HOP-18
  GI50: 34.3 µM (inactive)
HOP-62
  GI50: 18.7 µM (inactive)
HT-29
  GI50: 16.9 µM (inactive)
IGROV-1
  GI50: 29.7 µM (inactive)
K562
  GI50: 10.3 µM (inactive)
KM-20L2
  GI50: 17 µM (inactive)
KM12
  GI50: 17.3 µM (inactive)
LOX IMVI
  GI50: 6.27 µM (inactive)
LXFL 529
  GI50: 12.6 µM (inactive)
M14
  GI50: 11.1 µM (inactive)
M19-MEL
  GI50: 38.8 µM (inactive)
MOLT-4
  GI50: 1.69 µM (inactive)
Malme-3M
  GI50: 12.2 µM (inactive)
NCI-H226
  GI50: 23 µM (inactive)
NCI-H23
  GI50: > 10 µM (inactive)
NCI-H460
  GI50: 5.22 µM (inactive)
NCI-H522
  GI50: 10.3 µM (inactive)
OVCAR-3
  GI50: 16.3 µM (inactive)
OVCAR-4
  GI50: 17.8 µM (inactive)
OVCAR-5
  GI50: 20.4 µM (inactive)
OVCAR-8
  GI50: 19.3 µM (inactive)
RPMI-8226
  GI50: 7.5 µM (inactive)
RXF 393
  GI50: 13.3 µM (inactive)
SF-268
  GI50: 2.32 µM (inactive)
SF-295
  GI50: 8.24 µM (inactive)
SF-539
  GI50: 2.96 µM (inactive)
SK-MEL-28
  GI50: 15.8 µM (inactive)
SK-MEL-2
  GI50: 26.3 µM (inactive)
SK-MEL-5
  GI50: 13.1 µM (inactive)
SN12C
  GI50: 11.6 µM (inactive)
SNB-19
  GI50: 10.1 µM (inactive)
SNB-75
  GI50: 14.1 µM (inactive)
SR
  GI50: 2.79 µM (inactive)
SW-620
  GI50: 4.27 µM (inactive)
TK-10
  GI50: 25.7 µM (inactive)
U-251
  GI50: 7.06 µM (inactive)
UACC-257
  GI50: 14.3 µM (inactive)
UACC-62
  GI50: 1.33 µM (inactive)
UO-31
  GI50: 16.7 µM (inactive)
XF498
  GI50: 12.4 µM (inactive)

## CN1/C(=N\c2ccccc2)S/C1=N/c1ccccc1
786-0
  GI50: > 100 µM (inactive)
A498
  GI50: 96.4 µM (inactive)
A549
  GI50: 86.1 µM (inactive)
ACHN
  GI50: 70.6 µM (inactive)
CCRF-CEM
  GI50: 69.3 µM (inactive)
COLO 205
  GI50: 61 µM (inactive)
DLD-1
  GI50: 23.4 µM (inactive)
DMS-114
  GI50: 23.6 µM (inactive)
DMS-273
  GI50: 87.3 µM (inactive)
EKVX
  GI50: 60.1 µM (inactive)
HCC 2998
  GI50: 66.8 µM (inactive)
HCT-116
  GI50: 47.6 µM (inactive)
HCT-15
  GI50: 90.8 µM
HL-60
  GI50: 27.2 µM (inactive)
HOP-18
  GI50: 69 µM (inactive)
HOP-62
  GI50: > 100 µM (inactive)
HOP-92
  GI50: 10.2 µM (inactive)
HT-29
  GI50: 55.5 µM (inactive)
IGROV-1
  GI50: > 100 µM (inactive)
K562
  GI50: 56.5 µM (inactive)
KM12
  GI50: 52.2 µM (inactive)
LOX IMVI
  GI50: 74.6 µM (inactive)
LXFL 529
  GI50: 82.2 µM (inactive)
M14
  GI50: 72.1 µM (inactive)
M19-MEL
  GI50: 21.8 µM (inactive)
MOLT-4
  GI50: 69.3 µM (inactive)
Malme-3M
  GI50: 23.1 µM (inactive)
NCI-H226
  GI50: > 100 µM (inactive)
NCI-H23
  GI50: 40 µM (inactive)
NCI-H460
  GI50: > 100 µM (inactive)
NCI-H522
  GI50: 14.4 µM (inactive)
OVCAR-3
  GI50: 34.1 µM (inactive)
OVCAR-4
  GI50: 59.7 µM (inactive)
OVCAR-5
  GI50: > 100 µM (inactive)
OVCAR-8
  GI50: > 100 µM (inactive)
RPMI-8226
  GI50: 39.5 µM (inactive)
SF-268
  GI50: > 100 µM (inactive)
SF-295
  GI50: > 100 µM (inactive)
SF-539
  GI50: > 100 µM (inactive)
SK-MEL-28
  GI50: > 100 µM (inactive)
SK-MEL-2
  GI50: 27.2 µM (inactive)
SK-MEL-5
  GI50: 28.9 µM (inactive)
SK-OV-3
  GI50: > 100 µM (inactive)
SNB-19
  GI50: > 100 µM (inactive)
SNB-75
  GI50: 6.62 µM (inactive)
SNB-78
  GI50: > 100 µM (inactive)
SR
  GI50: 95.7 µM (inactive)
SW-620
  GI50: > 100 µM (inactive)
TK-10
  GI50: > 100 µM (inactive)
U-251
  GI50: > 100 µM (inactive)
UACC-257
  GI50: > 100 µM (inactive)
UACC-62
  GI50: > 100 µM (inactive)
UO-31
  GI50: > 100 µM (inactive)
XF498
  GI50: 9.57 µM (inactive)
